Patent US20160002267A1, “BENZYL-SUBSTITUTED PYRAZOLOPYRIDINES AND USE THEREOF” (BAYER PHARMA AKTIENGESELLSCHAFT, priority 2013, published 2016)

System: conscious spontaneously hypertensive rats
Assay: Radiotelemetric measurement of blood pressure on conscious spontaneously hypertensive rats
Type: in vivo, rat
Conditions: SHR
Text: A commercially available telemetry system from DATA SCIENCES INTERNATIONAL DSI, USA, is employed for the blood pressure measurement on conscious rats described below.
The system consists of 3 main components: • implantable transmitters (Physiotel® telemetry transmitter) • receivers (Physiotel® receiver) which are linked via a multiplexer (DSI Data Exchange Matrix) to a • data acquisition computer.
The telemetry system makes it possible to continuously record blood pressure, heart rate and body motion of conscious animals in their usual habitat.
The investigations are carried out on adult female spontaneously hypertensive rats (SHR Okamoto) with a body weight of >200 g. SHR/NCrl from the Okamoto Kyoto School of Medicine, 1963 were a cross of male Wistar Kyoto rats with highly elevated blood pressure and female rats having a slightly elevated blood pressure and at F13 handed over to the U.S. National Institutes of Health.
After transmitter implantation, the experimental animals are housed singly in type 3 Makrolon cages. They have free access to standard feed and water.
The day/night rhythm in the experimental laboratory is changed by the room lighting at 6.00 am and at 7.00 pm.
The telemetry transmitters TA11 PA-C40 used are surgically implanted under aseptic conditions in the experimental animals at least 14 days before the first experimental use. The animals instrumented in this way can be employed repeatedly after the wound has healed and the implant has settled.
Initiation of anaesthesia gas O2+N2O […] with 5% isofluran in a through-flow vessel.
After the anaesthesia has been initiated, the animal is connected to the anaesthesia mask on a thermal plate and receives 1.8% isofluran for anaesthesia maintenance and is shaved and disinfected over a large area of its abdomen. After the abdominal cavity has been opened along the linea alba, the liquid-filled measuring catheter of the system is inserted into the descending aorta in the cranial direction above the bifurcation and fixed with tissue glue (VetBonD™, 3M). The transmitter housing is fixed intraperitoneally to the abdominal wall muscle, and layered closure of the wound is performed.
An antibiotic (Oxytetracyclin® 10%, 60 mg/kg s.c., 0.06 ml/100 g body weight, Beta-Pharma GmbH & Co, Germany) and an analgesic (Rimadyl®, 4 mg/kg s.c., Pfizer, Germany) are administered postoperatively for prophylaxis of infection.
Unless indicated otherwise, the substances to be investigated are administered orally by gavage in each case to a group of animals (n=6). The test substances are dissolved in suitable solvent mixtures, or suspended in 0.5% strength Tylose, appropriate for an administration volume of 2 ml/kg of body weight.
A solvent-treated group of animals is employed as control.
The telemetry measuring unit present is configured for 24 animals. Each experiment is recorded under an experiment number (Vyear month day).
Each of the instrumented rats living in the system is assigned a separate receiving antenna (1010 Receiver, DSI).
The implanted transmitters can be activated externally by means of an incorporated magnetic switch and are switched to transmission in the run-up to the experiment. The signals emitted can be detected online by a data acquisition system (Dataquest™ A.R.T. for WINDOWS, DSI) and processed accordingly. The data are stored in each case in a file created for this purpose and bearing the experiment number.
In the standard procedure, the following are measured for 10-second periods in each case: • systolic blood pressure (SBP) • diastolic blood pressure (DBP) • mean arterial pressure (MAP) • heart rate (HR) • activity (ACT).
The acquisition of measurements is repeated under computer control at 5-minute intervals. The source data obtained as absolute value are corrected in the diagram with the currently measured barometric pressure (Ambient Pressure Reference Monitor; APR-1) and stored as individual data. […]

## CC1(C(F)(F)F)C(=O)Nc2nc(-c3nn(Cc4ccccc4F)c4ncc(F)cc34)nc(NCCC(F)(F)F)c21 (single isomer, unassigned) [Example 1-1, 2-[5-Fluoro-1-(2-fluorobenzyl)-1H-pyrazolo[3,4-b]pyridin-3-yl]-5-methyl-5-(trifluoromethyl)-4-[(3,3,3-trifluoropropyl)amino]-5,7-dihydro-6H-pyrrolo[2,3-d]pyrimidin-6-one]
0.03 mg/kg, 0 hours after administration of substance
  Mean blood pressure: 140.3 mmHg
0.03 mg/kg, 1 hours after administration of substance
  Mean blood pressure: 124.4 mmHg
0.03 mg/kg, 2 hours after administration of substance
  Mean blood pressure: 125.2 mmHg
0.03 mg/kg, 3 hours after administration of substance
  Mean blood pressure: 120.6 mmHg
0.03 mg/kg, 4 hours after administration of substance
  Mean blood pressure: 124.2 mmHg
0.03 mg/kg, 5 hours after administration of substance
  Mean blood pressure: 119.2 mmHg
0.03 mg/kg, 6 hours after administration of substance
  Mean blood pressure: 122.4 mmHg
0.03 mg/kg, 7 hours after administration of substance
  Mean blood pressure: 124.8 mmHg
0.03 mg/kg, 8 hours after administration of substance
  Mean blood pressure: 129.0 mmHg
0.03 mg/kg, 9 hours after administration of substance
  Mean blood pressure: 132.2 mmHg
0.03 mg/kg, 10 hours after administration of substance
  Mean blood pressure: 126.0 mmHg
0.03 mg/kg, 11 hours after administration of substance
  Mean blood pressure: 119.8 mmHg
0.03 mg/kg, 12 hours after administration of substance
  Mean blood pressure: 134.4 mmHg
0.03 mg/kg, 13 hours after administration of substance
  Mean blood pressure: 130.0 mmHg
0.03 mg/kg, 14 hours after administration of substance
  Mean blood pressure: 131.4 mmHg
0.03 mg/kg, 15 hours after administration of substance
  Mean blood pressure: 133.6 mmHg
0.03 mg/kg, 16 hours after administration of substance
  Mean blood pressure: 120.6 mmHg
0.03 mg/kg, 17 hours after administration of substance
  Mean blood pressure: 135.4 mmHg
0.03 mg/kg, 18 hours after administration of substance
  Mean blood pressure: 131.6 mmHg
0.03 mg/kg, 19 hours after administration of substance
  Mean blood pressure: 123.2 mmHg
0.03 mg/kg, 20 hours after administration of substance
  Mean blood pressure: 123.4 mmHg
0.03 mg/kg, 21 hours after administration of substance
  Mean blood pressure: 125.4 mmHg
0.03 mg/kg, 22 hours after administration of substance
  Mean blood pressure: 134.2 mmHg
0.03 mg/kg, 23 hours after administration of substance
  Mean blood pressure: 132.0 mmHg
0.03 mg/kg, 24 hours after administration of substance
  Mean blood pressure: 126.8 mmHg
0.3 mg/kg p.o., 0 hours after administration of substance
  Mean blood pressure: 144.2 mmHg
0.3 mg/kg p.o., 1 hours after administration of substance
  Mean blood pressure: 128.5 mmHg
0.3 mg/kg p.o., 2 hours after administration of substance
  Mean blood pressure: 116.7 mmHg
0.3 mg/kg p.o., 3 hours after administration of substance
  Mean blood pressure: 112.8 mmHg
0.3 mg/kg p.o., 4 hours after administration of substance
  Mean blood pressure: 114.3 mmHg
0.3 mg/kg p.o., 5 hours after administration of substance
  Mean blood pressure: 109.3 mmHg
0.3 mg/kg p.o., 6 hours after administration of substance
  Mean blood pressure: 110.2 mmHg
0.3 mg/kg p.o., 7 hours after administration of substance
  Mean blood pressure: 113.5 mmHg
0.3 mg/kg p.o., 8 hours after administration of substance
  Mean blood pressure: 114.2 mmHg
0.3 mg/kg p.o., 9 hours after administration of substance
  Mean blood pressure: 114.5 mmHg
0.3 mg/kg p.o., 10 hours after administration of substance
  Mean blood pressure: 109.5 mmHg
0.3 mg/kg p.o., 11 hours after administration of substance
  Mean blood pressure: 118.2 mmHg
0.3 mg/kg p.o., 12 hours after administration of substance
  Mean blood pressure: 110.5 mmHg
0.3 mg/kg p.o., 13 hours after administration of substance
  Mean blood pressure: 115.5 mmHg
0.3 mg/kg p.o., 14 hours after administration of substance
  Mean blood pressure: 117.8 mmHg
0.3 mg/kg p.o., 15 hours after administration of substance
  Mean blood pressure: 114.5 mmHg
0.3 mg/kg p.o., 16 hours after administration of substance
  Mean blood pressure: 118.2 mmHg
0.3 mg/kg p.o., 17 hours after administration of substance
  Mean blood pressure: 122.7 mmHg
0.3 mg/kg p.o., 18 hours after administration of substance
  Mean blood pressure: 127.8 mmHg
0.3 mg/kg p.o., 19 hours after administration of substance
  Mean blood pressure: 121.0 mmHg
0.3 mg/kg p.o., 20 hours after administration of substance
  Mean blood pressure: 110.5 mmHg
0.3 mg/kg p.o., 21 hours after administration of substance
  Mean blood pressure: 113.3 mmHg
0.3 mg/kg p.o., 22 hours after administration of substance
  Mean blood pressure: 116.7 mmHg
0.3 mg/kg p.o., 23 hours after administration of substance
  Mean blood pressure: 115.7 mmHg
0.3 mg/kg p.o., 24 hours after administration of substance
  Mean blood pressure: 123.7 mmHg
